Laboratory results as given in ChEMBL document CHEMBL1201862, “PubChem BioAssay data set” (2004).
Activity calls are given as the source filed them.

Experiments:
[1] = molecular target: T1, Estrogen receptor beta (Homo sapiens, UniProt Q92731);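 further: recombinant ER-beta bound to coactivator SRC1 peptide in presence of estradiol agonist; inhibitors block coactivator peptide binding and lower the FRET signal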
[2] = molecular target: T1, Estrogen receptor beta; assay: ERβ–SRC-3 coactivator interaction inhibitors, confirmation, orthogonal assay, biochemical, ELISA, streptavidin-HRP readout (AID 1060)
[3] = molecular target: T2, Bcl-2-like protein 10 (Homo sapiens, UniProt Q9HD36); assay: displacers of TR3 peptide from Bcl-B, primary screen, selectivity assay for Bfl-1 inhibitor project, biochemical, fluorescence polarization, FITC-TR3 peptide (AID 748);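 further: fluorescence polarization from a fluorescein-labelled TR3 peptide binding purified Bcl-B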
T2 sequence (Q9HD36 whole entry): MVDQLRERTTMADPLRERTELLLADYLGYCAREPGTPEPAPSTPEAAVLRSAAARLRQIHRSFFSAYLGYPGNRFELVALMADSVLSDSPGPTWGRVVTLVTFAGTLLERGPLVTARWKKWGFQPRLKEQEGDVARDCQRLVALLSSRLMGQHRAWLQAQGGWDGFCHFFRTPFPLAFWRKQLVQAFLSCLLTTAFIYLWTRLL

[4] = molecular target: Voltage-dependent T-type calcium channel subunit alpha-1H (Homo sapiens, UniProt O95180); format: functional;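 further: channel activity triggered by adding a high calcium stimulation buffer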
[5] = molecular target: Beta-galactosidase (Escherichia coli, UniProt Q8VNN2); format: functional
[6] = molecular target: T3, Kappa-type opioid receptor (Homo sapiens, UniProt P41145); format: functional
[7] = molecular target: T3, Kappa-type opioid receptor; format: functional; remark: listed apart in the source
[8] = inhibitors of intracellular T. cruzi replication, confirmation, NIH3T3 host cells, beta-gal luminescence (AID 2044); format: functional, cell-based;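 further: intracellular parasites grown in NIH/3T3 mouse fibroblasts as host cells; luminescent beta-galactosidase reporter signal from transgenic T. cruzi replicating inside host cells; inhibitors lower the luminescence signal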
[9] = cytotoxicity toward NIH3T3 fibroblasts, dose response, counter-screen, cell-based, ATP luminescence, mouse fibroblasts (AID 2010); format: functional;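 further: cells exposed to compound for about 90 hours before reading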
[10] = molecular target: DNA dC->dU-editing enzyme APOBEC-3G (Homo sapiens, UniProt Q9HC16); assay: Dose Response confirmation of small molecule APOBEC3G DNA Deaminase Inhibitors via a fluorescence-based single-stranded DNA deaminase assay. [Related pubchem assays (depositor defined):AID493012, AID493028]; format: functional
[11] = molecular target: T4, Short transient receptor potential channel 4 (Mus musculus, UniProt Q9QUQ5); assay: mouse TRPC4 channel inhibitors, dose response, cell-based, HEK293 TRPC4/mu-opioid, Fluo-4 calcium (AID 434942); format: functional;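 further: potency of inhibitors blocking the TRPC4 calcium response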
T4 sequence (Q9QUQ5 whole entry): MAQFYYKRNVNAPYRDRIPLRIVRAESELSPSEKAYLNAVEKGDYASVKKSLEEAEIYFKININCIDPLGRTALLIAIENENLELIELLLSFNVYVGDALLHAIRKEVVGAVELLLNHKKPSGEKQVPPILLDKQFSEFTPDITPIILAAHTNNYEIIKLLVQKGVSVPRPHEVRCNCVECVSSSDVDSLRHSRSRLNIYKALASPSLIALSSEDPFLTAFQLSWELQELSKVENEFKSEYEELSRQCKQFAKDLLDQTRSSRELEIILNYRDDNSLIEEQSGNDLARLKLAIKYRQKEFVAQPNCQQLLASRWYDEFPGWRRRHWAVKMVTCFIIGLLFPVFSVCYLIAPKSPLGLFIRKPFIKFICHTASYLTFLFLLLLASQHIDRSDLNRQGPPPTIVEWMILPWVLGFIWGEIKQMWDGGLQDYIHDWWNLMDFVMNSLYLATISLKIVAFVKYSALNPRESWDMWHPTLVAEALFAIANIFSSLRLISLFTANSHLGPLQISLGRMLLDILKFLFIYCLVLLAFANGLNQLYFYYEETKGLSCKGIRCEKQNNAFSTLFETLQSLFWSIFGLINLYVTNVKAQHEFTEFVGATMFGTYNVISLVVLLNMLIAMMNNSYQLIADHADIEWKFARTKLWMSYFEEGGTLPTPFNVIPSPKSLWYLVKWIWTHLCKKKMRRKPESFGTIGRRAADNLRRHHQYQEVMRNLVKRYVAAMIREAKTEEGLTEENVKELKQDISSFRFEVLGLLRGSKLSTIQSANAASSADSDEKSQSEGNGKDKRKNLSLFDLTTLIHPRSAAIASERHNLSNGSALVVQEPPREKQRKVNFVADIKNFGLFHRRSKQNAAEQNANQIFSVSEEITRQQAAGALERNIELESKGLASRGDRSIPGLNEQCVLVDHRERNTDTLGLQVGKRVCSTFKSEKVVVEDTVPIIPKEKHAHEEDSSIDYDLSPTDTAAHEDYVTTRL

[12] = molecular target: T5, Replicative DNA helicase DnaB (Mycobacterium tuberculosis, UniProt P9WMR3); assay: DnaB intein splicing inhibitors, dose response, biochemical, cell-free fluorescence (AID 449749); format: functional
T5 sequence (P9WMR3 whole entry): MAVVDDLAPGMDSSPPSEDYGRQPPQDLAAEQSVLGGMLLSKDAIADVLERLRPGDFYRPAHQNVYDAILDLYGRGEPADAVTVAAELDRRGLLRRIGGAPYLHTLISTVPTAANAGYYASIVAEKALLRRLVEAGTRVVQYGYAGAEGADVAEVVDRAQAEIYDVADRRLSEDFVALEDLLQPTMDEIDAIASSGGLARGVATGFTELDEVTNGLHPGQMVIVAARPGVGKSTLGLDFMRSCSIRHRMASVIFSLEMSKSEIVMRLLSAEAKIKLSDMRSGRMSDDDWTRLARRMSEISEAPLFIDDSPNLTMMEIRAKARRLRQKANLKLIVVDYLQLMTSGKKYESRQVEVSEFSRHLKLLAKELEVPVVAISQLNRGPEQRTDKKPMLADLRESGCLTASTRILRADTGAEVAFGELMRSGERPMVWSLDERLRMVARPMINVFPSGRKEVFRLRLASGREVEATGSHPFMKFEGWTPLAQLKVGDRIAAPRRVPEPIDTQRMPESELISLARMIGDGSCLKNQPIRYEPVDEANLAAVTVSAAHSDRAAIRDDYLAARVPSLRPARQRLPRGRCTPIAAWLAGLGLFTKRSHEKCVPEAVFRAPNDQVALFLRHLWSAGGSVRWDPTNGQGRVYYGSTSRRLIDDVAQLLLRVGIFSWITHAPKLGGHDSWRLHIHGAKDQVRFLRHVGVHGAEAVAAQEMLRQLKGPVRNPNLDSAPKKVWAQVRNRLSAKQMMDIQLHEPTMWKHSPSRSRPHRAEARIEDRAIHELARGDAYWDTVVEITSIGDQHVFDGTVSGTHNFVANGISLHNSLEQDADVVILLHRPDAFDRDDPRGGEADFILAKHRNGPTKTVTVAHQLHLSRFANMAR

[13] = molecular target: T6, Protein RecA (Mycobacterium tuberculosis, UniProt P9WHJ3); assay: Fluorescence Cell-Free Homogeneous Dose Retest to Identify Inhibitors of RecA-Intein Splicing Activity. [Related pubchem assays (depositor defined):AID2097, AID2223, AID489010, AID492950]; format: functional
T6 sequence (P9WHJ3 whole entry): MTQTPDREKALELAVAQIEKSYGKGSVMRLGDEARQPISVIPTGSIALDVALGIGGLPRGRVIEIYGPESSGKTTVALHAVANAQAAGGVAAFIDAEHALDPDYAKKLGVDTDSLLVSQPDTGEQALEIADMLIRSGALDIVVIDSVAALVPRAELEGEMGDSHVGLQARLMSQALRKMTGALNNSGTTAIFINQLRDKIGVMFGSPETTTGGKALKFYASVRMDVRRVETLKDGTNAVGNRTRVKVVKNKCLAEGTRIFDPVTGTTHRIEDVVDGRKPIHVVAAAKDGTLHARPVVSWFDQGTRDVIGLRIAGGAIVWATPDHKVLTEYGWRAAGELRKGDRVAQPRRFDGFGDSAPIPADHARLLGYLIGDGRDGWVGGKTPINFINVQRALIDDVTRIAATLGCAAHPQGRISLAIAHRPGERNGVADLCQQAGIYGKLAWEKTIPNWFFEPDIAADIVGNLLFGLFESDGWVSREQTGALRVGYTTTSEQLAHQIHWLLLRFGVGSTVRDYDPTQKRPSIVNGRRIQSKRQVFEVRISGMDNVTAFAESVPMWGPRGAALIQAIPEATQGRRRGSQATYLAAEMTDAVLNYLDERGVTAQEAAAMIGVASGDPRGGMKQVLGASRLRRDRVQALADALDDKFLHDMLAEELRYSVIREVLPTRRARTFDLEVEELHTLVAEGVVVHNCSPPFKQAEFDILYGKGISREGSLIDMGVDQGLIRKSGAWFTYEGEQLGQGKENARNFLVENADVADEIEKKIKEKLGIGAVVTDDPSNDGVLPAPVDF

[14] = molecular target: Large T antigen (Simian virus 40, UniProt P03070); format: functional, Betapolyomavirus macacae;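 further: Confirmatory-stage PubChem screen for compounds that inhibit SV40 T antigen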
[15] = NIH-3T3 fibroblast cytotoxicity, dose response, cytotoxicity control, cell-based, fluorescence, Alamar Blue, secondary assay (AID 2327); format: functional;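 further: NIH-3T3 mouse fibroblasts cultured with fluconazole at 8 µg/mL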
[16] = C. albicans growth with fluconazole, confirmation, fluorescence, retest (AID 2467); format: functional, cell-based
[17] = molecular target: T7, Aminopeptidase N (Plasmodium falciparum FcB1/Columbia, UniProt O96935); assay: P. falciparum M1AAP inhibitors, biochemical, fluorogenic H-Leu-NHMec substrate, 1536-well (AID 1445); parameters: species or system Plasmodium falciparum 3D7, 3D7
T7 sequence (O96935 whole entry): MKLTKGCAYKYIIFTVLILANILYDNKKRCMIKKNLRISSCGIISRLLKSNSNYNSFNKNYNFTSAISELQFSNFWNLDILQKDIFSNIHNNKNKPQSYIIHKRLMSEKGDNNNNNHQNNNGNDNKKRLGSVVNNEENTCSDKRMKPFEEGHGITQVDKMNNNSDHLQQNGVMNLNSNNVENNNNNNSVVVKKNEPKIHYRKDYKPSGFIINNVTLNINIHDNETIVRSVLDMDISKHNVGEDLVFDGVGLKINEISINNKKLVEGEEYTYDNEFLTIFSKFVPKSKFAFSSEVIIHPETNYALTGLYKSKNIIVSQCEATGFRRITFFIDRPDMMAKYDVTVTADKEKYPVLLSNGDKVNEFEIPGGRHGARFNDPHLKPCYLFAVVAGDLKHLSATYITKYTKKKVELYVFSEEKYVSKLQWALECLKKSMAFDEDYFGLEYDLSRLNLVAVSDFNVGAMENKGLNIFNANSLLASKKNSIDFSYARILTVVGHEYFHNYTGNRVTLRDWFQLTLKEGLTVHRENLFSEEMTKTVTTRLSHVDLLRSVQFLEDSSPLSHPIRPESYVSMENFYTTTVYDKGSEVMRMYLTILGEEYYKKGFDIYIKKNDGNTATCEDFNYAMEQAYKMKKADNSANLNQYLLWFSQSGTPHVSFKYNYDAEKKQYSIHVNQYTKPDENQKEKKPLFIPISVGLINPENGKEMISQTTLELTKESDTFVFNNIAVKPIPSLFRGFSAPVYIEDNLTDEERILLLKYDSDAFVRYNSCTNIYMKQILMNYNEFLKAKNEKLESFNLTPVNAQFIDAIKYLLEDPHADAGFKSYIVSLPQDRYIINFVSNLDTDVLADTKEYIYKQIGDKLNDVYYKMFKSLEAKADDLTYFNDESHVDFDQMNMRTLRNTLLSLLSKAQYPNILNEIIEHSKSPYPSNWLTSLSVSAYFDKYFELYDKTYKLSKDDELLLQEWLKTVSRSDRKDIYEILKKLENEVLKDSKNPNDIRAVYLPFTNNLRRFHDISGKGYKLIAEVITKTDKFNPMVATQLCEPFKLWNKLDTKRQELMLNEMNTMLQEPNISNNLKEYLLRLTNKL

[18] = molecular target: Induced myeloid leukemia cell differentiation protein Mcl-1 (Homo sapiens, UniProt Q07820); format: functional
[19] = molecular target: Kallikrein-7 (Homo sapiens, UniProt P49862); assay: Fluorescence Intensity-based biochemical primary high throughput dose response assay to identify activators of kallikrein-7 (K7) zymogen.
[20] = molecular target: Trypsin (Sus scrofa, UniProt P00761); assay: porcine trypsin inhibitors, dose response, selectivity assay for Rce1 protease inhibitor project, biochemical, quenched peptide fluorescence, cherry-pick (AID 488789)
Chain of Trypsin (P00761 whole entry): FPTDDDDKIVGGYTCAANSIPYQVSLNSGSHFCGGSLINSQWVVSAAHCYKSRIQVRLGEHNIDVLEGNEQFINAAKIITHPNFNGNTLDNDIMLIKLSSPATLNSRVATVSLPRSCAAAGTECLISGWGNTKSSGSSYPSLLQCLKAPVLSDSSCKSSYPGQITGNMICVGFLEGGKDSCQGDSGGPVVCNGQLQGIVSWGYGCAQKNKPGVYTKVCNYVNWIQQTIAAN

Chain of Voltage-dependent T-type calcium channel subunit alpha-1H (O95180 whole entry): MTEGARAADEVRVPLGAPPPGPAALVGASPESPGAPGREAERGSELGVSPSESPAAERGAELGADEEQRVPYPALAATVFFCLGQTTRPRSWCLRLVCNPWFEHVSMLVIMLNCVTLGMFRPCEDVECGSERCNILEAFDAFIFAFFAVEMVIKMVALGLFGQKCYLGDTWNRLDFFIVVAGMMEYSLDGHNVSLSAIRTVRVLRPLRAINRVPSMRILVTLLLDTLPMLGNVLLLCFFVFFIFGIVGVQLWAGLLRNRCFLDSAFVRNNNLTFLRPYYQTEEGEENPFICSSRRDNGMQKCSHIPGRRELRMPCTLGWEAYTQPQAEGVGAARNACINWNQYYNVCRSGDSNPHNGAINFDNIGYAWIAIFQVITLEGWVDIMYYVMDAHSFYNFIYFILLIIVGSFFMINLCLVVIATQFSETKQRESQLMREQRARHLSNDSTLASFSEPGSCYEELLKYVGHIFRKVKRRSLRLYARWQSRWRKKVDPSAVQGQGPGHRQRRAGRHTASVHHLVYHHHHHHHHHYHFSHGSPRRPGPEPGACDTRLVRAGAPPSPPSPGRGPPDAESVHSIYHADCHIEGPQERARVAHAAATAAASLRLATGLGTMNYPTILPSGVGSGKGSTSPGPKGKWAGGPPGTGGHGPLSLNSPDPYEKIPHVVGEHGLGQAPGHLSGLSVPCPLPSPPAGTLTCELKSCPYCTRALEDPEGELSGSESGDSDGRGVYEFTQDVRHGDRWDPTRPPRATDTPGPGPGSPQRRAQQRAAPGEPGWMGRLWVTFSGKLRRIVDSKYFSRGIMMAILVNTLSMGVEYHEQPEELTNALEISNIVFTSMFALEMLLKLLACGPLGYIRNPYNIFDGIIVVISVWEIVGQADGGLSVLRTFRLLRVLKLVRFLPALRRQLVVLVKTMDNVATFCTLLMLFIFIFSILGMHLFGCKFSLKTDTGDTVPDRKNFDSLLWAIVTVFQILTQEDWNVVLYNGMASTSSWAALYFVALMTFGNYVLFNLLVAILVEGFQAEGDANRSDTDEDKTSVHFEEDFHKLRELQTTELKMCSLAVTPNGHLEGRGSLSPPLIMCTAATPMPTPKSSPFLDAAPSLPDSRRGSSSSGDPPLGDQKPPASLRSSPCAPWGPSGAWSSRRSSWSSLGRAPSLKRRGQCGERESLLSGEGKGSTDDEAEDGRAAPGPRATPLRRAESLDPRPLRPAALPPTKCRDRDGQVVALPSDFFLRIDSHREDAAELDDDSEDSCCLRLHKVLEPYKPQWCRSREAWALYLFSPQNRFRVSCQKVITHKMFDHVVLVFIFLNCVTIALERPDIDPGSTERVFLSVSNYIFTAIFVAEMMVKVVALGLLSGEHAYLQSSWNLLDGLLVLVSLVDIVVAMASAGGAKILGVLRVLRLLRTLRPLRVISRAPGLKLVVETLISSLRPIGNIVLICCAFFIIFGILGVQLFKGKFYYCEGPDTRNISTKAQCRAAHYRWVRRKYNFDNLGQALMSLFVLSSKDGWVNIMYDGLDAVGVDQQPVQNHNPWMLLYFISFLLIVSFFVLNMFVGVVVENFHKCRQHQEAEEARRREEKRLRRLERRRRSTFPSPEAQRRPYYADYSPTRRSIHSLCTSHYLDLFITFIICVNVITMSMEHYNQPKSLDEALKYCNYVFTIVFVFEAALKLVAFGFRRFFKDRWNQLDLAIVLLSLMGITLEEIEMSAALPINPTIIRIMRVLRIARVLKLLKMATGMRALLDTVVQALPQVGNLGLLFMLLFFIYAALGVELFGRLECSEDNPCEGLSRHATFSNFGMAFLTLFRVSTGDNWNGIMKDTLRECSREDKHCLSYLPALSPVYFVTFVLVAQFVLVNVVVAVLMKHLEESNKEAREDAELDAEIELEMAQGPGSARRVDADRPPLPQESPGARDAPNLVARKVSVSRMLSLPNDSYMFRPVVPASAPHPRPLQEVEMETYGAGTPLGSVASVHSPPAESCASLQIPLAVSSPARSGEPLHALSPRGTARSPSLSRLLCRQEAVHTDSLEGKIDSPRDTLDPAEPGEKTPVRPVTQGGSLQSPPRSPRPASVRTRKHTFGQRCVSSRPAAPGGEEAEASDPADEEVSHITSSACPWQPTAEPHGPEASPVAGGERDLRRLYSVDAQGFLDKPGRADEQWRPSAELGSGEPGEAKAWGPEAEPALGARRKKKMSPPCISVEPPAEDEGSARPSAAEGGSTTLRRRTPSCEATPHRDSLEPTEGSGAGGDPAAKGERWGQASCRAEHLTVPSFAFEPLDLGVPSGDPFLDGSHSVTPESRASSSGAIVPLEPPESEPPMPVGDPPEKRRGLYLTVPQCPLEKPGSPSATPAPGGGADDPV
T3 sequence (P41145 whole entry): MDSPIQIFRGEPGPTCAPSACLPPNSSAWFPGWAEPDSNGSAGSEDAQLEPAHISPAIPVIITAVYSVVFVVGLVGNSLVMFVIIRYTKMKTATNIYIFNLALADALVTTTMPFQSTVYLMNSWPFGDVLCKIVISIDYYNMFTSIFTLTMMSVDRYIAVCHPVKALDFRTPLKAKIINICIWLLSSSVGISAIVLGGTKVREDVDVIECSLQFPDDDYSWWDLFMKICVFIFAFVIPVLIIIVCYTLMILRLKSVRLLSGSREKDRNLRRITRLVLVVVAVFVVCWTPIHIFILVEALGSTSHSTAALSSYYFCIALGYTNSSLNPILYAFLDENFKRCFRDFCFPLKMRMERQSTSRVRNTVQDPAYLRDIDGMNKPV
Chain of Beta-galactosidase (Q8VNN2 whole entry): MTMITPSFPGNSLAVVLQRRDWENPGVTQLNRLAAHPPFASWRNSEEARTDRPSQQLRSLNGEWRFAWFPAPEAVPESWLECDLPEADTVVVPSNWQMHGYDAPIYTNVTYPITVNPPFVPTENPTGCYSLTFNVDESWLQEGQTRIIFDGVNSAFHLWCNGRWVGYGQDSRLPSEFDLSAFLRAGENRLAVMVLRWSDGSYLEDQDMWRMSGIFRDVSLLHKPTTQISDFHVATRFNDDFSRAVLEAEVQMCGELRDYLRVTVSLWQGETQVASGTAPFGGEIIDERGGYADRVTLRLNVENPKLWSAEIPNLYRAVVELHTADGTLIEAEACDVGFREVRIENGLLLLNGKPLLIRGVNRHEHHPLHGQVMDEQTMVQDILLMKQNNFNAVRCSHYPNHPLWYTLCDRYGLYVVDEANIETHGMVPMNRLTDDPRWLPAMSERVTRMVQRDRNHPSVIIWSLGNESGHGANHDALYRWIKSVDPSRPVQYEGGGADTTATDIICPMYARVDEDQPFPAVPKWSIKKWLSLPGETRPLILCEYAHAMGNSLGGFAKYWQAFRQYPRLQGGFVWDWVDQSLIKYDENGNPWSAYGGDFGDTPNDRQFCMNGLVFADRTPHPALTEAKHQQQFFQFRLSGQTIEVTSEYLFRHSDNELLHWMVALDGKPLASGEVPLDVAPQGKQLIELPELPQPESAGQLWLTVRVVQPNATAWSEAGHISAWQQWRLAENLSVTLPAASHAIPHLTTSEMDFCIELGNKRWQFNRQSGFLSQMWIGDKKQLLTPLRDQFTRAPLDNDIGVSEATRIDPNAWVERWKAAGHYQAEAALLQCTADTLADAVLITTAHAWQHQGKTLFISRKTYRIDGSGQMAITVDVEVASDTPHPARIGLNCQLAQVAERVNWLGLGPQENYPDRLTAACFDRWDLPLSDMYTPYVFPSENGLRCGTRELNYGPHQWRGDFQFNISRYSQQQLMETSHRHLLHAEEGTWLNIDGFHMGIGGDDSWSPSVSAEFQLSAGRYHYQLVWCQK
Chain of DNA dC->dU-editing enzyme APOBEC-3G (Q9HC16 whole entry): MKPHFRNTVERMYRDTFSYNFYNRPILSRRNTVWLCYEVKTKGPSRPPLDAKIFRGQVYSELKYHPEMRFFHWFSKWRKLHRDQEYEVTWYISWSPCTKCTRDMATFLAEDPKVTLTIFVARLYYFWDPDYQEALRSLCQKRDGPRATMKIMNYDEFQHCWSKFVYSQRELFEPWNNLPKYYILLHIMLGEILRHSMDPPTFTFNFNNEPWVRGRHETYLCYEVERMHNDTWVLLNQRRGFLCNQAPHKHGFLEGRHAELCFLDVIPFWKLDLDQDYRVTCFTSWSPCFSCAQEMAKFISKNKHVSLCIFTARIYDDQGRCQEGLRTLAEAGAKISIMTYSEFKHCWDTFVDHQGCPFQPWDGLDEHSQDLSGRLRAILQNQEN
T1 sequence (Q92731 whole entry): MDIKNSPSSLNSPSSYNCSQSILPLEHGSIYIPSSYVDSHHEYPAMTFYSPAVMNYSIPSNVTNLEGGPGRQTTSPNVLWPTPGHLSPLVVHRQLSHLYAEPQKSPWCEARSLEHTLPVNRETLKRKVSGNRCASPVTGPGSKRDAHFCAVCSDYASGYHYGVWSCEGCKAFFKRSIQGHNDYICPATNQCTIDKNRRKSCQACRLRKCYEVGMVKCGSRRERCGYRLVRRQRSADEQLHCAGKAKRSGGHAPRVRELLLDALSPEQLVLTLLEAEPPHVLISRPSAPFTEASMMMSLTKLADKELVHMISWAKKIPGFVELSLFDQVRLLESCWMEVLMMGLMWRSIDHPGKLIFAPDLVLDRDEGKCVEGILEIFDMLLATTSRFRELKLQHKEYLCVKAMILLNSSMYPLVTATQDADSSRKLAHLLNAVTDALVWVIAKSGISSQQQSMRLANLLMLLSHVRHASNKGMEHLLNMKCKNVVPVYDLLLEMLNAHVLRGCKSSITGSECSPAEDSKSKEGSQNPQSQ

Structure (SMILES): CSc1ccccc1NC(=O)c1noc2c1CCC2
- IC50 [1]: 3.77 µM (active)
- IC50 [2]: > 50 µM (not active)
- IC50 [3]: 12.6 µM (active)

Structure (SMILES): Oc1ccccc1C1=Nc2nc3ccccc3n2C(c2ccccc2)C1 (stereo not drawn)
- EC50 [4]: 6.95 µM (active)

Structure (SMILES): Cc1sc(Cc2nc(O)cs2)nc1-c1ccccc1
- EC50 [5]: > 31.5 µM (inactive)
- IC50 [6]: > 32 µM
- IC50 [7]: 15.6 µM (active)

Structure (SMILES): Cc1nc2scc(-c3ccccc3)c2c(=O)n1N=C1C=CC(=O)C=C1
- EC50 [8]: 2.23 µM (active)
- EC50 [9]: 7.47 µM (active)
- EC50 [5]: > 31.5 µM (inactive)
- IC50 [6]: 16.5 µM
- IC50 [10]: 9.73 µM (active)
- EC50 [11]: 5.96 µM (active)
- IC50 [7]: 9.24 µM (active)

Structure (SMILES): CCCC1=C(C(=O)OCC)C(c2cc(Cl)cc(OC)c2OCC(=O)OCC)NC(=O)N1 (stereo not drawn)
- IC50 [3]: > 100 µM (inactive)

Structure (SMILES): O=C(O)COc1ccccc1C(Nc1cccnc1)c1cc(Cl)c2cccnc2c1O (stereo not drawn)
- AC50 [12]: > 380 µM (inactive)
- EC50 [13]: 11.8 µM (active)
- IC50 [14]: 10.3 µM (active)
- EC50 [15]: > 150 µM (inactive)
- EC50 [16]: > 38 µM (not active)
- IC50 [17]: 38.4 µM (active)
- IC50 [18]: 1.71 µM (active)

Structure (SMILES): COc1ccc(N(CC(=O)Nc2cccc(C(F)(F)F)c2)S(C)(=O)=O)cc1
- EC50 [4]: 7.98 µM (active)

Structure (SMILES): COC(=O)C1=C(C)N(c2ccccc2)/C(=C/c2cccs2)C1=O
- IC50 [3]: > 50 µM (inactive)

Structure (SMILES): CCc1ccc(S(=O)(=O)NCCc2csc(-c3ccccc3)n2)s1
- EC50 [4]: 4.22 µM (active)

Structure (SMILES): O=C1NC(c2ccc(Br)cc2)Nc2ccccc21 (stereo not drawn)
- EC50 [19]: > 69.5 µM (inactive)
- AC50 [20]: 15.3 µM (active)

Structure (SMILES): O=S(=O)(c1ccccc1)N(F)S(=O)(=O)c1ccccc1
- IC50 [10]: 55.3 µM (active)
